Test results as given in US11708318B2, “Polymorphic forms of RAD1901-2HCL” (Radius Pharmaceuticals, Inc., priority 2017, dated 2023).
“Also recorded” adds a separate entry of the source. Like-named read-outs stand apart in the source and are kept apart here.

Experiment: Solubility assessment of Sample 1 (majorly Form 1) in 24 solvent systems
Assay type: physicochemical
Settings: for solubility: thermodynamic from solid
Experimental: Solubility assessment was carried out on the Sample 1 of RAD1901-2HCl (majorly Form 1 shown by XRPD) in 24 solvent systems in HPLC vials (sample IDs: A1 to A24). RAD1901-2HCl (25 mg) was treated with increasing volumes of solvent until the material fully dissolved or until a maximum of 60 vol had been used (Table 13).
After each addition of solvent, the system was stirred for 5 to 10 minutes at 25° C., then shaken at 50° C. for 5 to 10 minutes, and observations made. Samples were allowed to stand at room temperature for 5 min before the addition of a new aliquot of solvent. After the assessment was completed, the suspensions obtained were matured (maturation) and the clear solutions were cooled (cooling) and slowly evaporated (evaporation) as described below. All solids recovered from maturation, cooling and evaporation experiments were analyzed by high resolution XRPD.

Q: For `CCNCCc1ccc(CN(CC)c2cc(OC)ccc2[C@@H]2CCc3cc(O)ccc3C2)cc1.Cl.Cl` [Sample 1], which solubility (acetonitrile, 50 °C, organic solvent or mixture, Acetonitrile, sample ID A19, read-out: Solubility assessment 10 vol.) is on record?
A: < 100 mg/mL

Q: What about the solubility (acetonitrile, 50 °C, organic solvent or mixture, Acetonitrile, sample ID A19, read-out: Solubility assessment 20 vol.) of the same compound?
A: < 50 mg/mL

Q: And the solubility (acetonitrile, 50 °C, organic solvent or mixture, Acetonitrile, sample ID A19, read-out: Solubility assessment 40 vol.)?
A: < 25 mg/mL

Q: And the solubility (acetonitrile, 50 °C, organic solvent or mixture, Acetonitrile, sample ID A19, read-out: Solubility assessment 60 vol.)?
A: < 16.7 mg/mL

Q: What about the solubility (dichloromethane, 50 °C, organic solvent or mixture, Dichloromethane, sample ID A18, read-out: Solubility assessment 10 vol.) of the same compound?
A: < 100 mg/mL

Q: What about the solubility (dichloromethane, 50 °C, organic solvent or mixture, Dichloromethane, sample ID A18, read-out: Solubility assessment 20 vol.) of the same compound?
A: < 50 mg/mL

Q: What about the solubility (dichloromethane, 50 °C, organic solvent or mixture, Dichloromethane, sample ID A18, read-out: Solubility assessment 40 vol.) of the same compound?
A: < 25 mg/mL

Q: And the solubility (dichloromethane, organic solvent or mixture, Dichloromethane, sample ID A18, read-out: Solubility assessment 60 vol.)?
A: < 16.7 mg/mL

Q: What about the solubility (dimethyl sulfoxide, 50 °C, organic solvent or mixture, Dimethyl sulfoxide, sample ID A11, read-out: Solubility assessment 10 vol.) of the same compound?
A: > 100 mg/mL

Q: What about the solubility (ethanol, 50 °C, organic solvent or mixture, Ethanol, sample ID A10, read-out: Solubility assessment 10 vol.) of the same compound?
A: < 100 mg/mL

Q: And the solubility (ethanol, 50 °C, organic solvent or mixture, Ethanol, sample ID A10, read-out: Solubility assessment 20 vol.)?
A: < 50 mg/mL

Q: And the solubility (ethanol, 50 °C, organic solvent or mixture, Ethanol, sample ID A10, read-out: Solubility assessment 40 vol.)?
A: < 25 mg/mL

Q: What about the solubility (ethanol, organic solvent or mixture, Ethanol, sample ID A10, read-out: Solubility assessment 60 vol.) of the same compound?
A: < 16.7 mg/mL

Q: And the solubility (ethyl acetate, 50 °C, organic solvent or mixture, Ethyl acetate, sample ID A3, read-out: Solubility assessment 10 vol.)?
A: < 100 mg/mL

Q: And the solubility (ethyl acetate, 50 °C, organic solvent or mixture, Ethyl acetate, sample ID A3, read-out: Solubility assessment 20 vol.)?
A: < 50 mg/mL

Q: And the solubility (ethyl acetate, 50 °C, organic solvent or mixture, Ethyl acetate, sample ID A3, read-out: Solubility assessment 40 vol.)?
A: < 25 mg/mL

Q: What about the solubility (ethyl acetate, organic solvent or mixture, Ethyl acetate, sample ID A3, read-out: Solubility assessment 60 vol.) of the same compound?
A: < 16.7 mg/mL

Q: What about the solubility (isopropyl acetate, 50 °C, organic solvent or mixture, Isopropyl acetate, sample ID A4, read-out: Solubility assessment 10 vol.) of the same compound?
A: < 100 mg/mL

Q: What about the solubility (isopropyl acetate, 50 °C, organic solvent or mixture, Isopropyl acetate, sample ID A4, read-out: Solubility assessment 20 vol.) of the same compound?
A: < 50 mg/mL

Q: What about the solubility (isopropyl acetate, 50 °C, organic solvent or mixture, Isopropyl acetate, sample ID A4, read-out: Solubility assessment 40 vol.) of the same compound?
A: < 25 mg/mL

Q: What about the solubility (isopropyl acetate, organic solvent or mixture, Isopropyl acetate, sample ID A4, read-out: Solubility assessment 60 vol.) of the same compound?
A: < 16.7 mg/mL

Q: What about the solubility (methanol, 50 °C, organic solvent or mixture, Methanol, sample ID A20, read-out: Solubility assessment 10 vol.) of the same compound?
A: 50 to 100 mg/mL

Q: What about the solubility (methanol, 50 °C, organic solvent or mixture, Methanol, sample ID A20, read-out: Solubility assessment 20 vol.) of the same compound?
A: 50 to 100 mg/mL

Q: And the solubility (n-heptane, 50 °C, organic solvent or mixture, n-Heptane, sample ID A1, read-out: Solubility assessment 10 vol.)?
A: < 100 mg/mL

Q: And the solubility (n-heptane, 50 °C, organic solvent or mixture, n-Heptane, sample ID A1, read-out: Solubility assessment 20 vol.)?
A: < 50 mg/mL

Q: And the solubility (n-heptane, 50 °C, organic solvent or mixture, n-Heptane, sample ID A1, read-out: Solubility assessment 40 vol.)?
A: < 25 mg/mL

Q: What about the solubility (n-heptane, organic solvent or mixture, n-Heptane, sample ID A1, read-out: Solubility assessment 60 vol.) of the same compound?
A: < 16.7 mg/mL

Q: What about the solubility (nitromethane, 50 °C, organic solvent or mixture, Nitromethane, sample ID A21, read-out: Solubility assessment 10 vol.) of the same compound?
A: < 100 mg/mL

Q: What about the solubility (nitromethane, 50 °C, organic solvent or mixture, Nitromethane, sample ID A21, read-out: Solubility assessment 20 vol.) of the same compound?
A: < 50 mg/mL

Q: And the solubility (nitromethane, 50 °C, organic solvent or mixture, Nitromethane, sample ID A21, read-out: Solubility assessment 40 vol.)?
A: < 25 mg/mL

Q: And the solubility (nitromethane, organic solvent or mixture, Nitromethane, sample ID A21, read-out: Solubility assessment 60 vol.)?
A: < 16.7 mg/mL

Q: What about the solubility (propyl acetate, 50 °C, organic solvent or mixture, Propyl acetate, sample ID A2, read-out: Solubility assessment 10 vol.) of the same compound?
A: < 100 mg/mL

Q: And the solubility (propyl acetate, 50 °C, organic solvent or mixture, Propyl acetate, sample ID A2, read-out: Solubility assessment 20 vol.)?
A: < 50 mg/mL

Q: And the solubility (propyl acetate, 50 °C, organic solvent or mixture, Propyl acetate, sample ID A2, read-out: Solubility assessment 40 vol.)?
A: < 25 mg/mL

Q: What about the solubility (propyl acetate, organic solvent or mixture, Propyl acetate, sample ID A2, read-out: Solubility assessment 60 vol.) of the same compound?
A: < 16.7 mg/mL

Q: What about the solubility (tetrahydrofuran, 50 °C, organic solvent or mixture, Tetrahydrofuran, sample ID A17, read-out: Solubility assessment 10 vol.) of the same compound?
A: < 100 mg/mL

Q: What about the solubility (tetrahydrofuran, 50 °C, organic solvent or mixture, Tetrahydrofuran, sample ID A17, read-out: Solubility assessment 20 vol.) of the same compound?
A: < 50 mg/mL

Q: And the solubility (tetrahydrofuran, 50 °C, organic solvent or mixture, Tetrahydrofuran, sample ID A17, read-out: Solubility assessment 40 vol.)?
A: < 25 mg/mL

Q: And the solubility (tetrahydrofuran, organic solvent or mixture, Tetrahydrofuran, sample ID A17, read-out: Solubility assessment 60 vol.)?
A: < 16.7 mg/mL

Q: And the solubility (toluene, 50 °C, organic solvent or mixture, Toluene, sample ID A15, read-out: Solubility assessment 10 vol.)?
A: < 100 mg/mL

Q: What about the solubility (toluene, 50 °C, organic solvent or mixture, Toluene, sample ID A15, read-out: Solubility assessment 20 vol.) of the same compound?
A: < 50 mg/mL

Q: What about the solubility (toluene, 50 °C, organic solvent or mixture, Toluene, sample ID A15, read-out: Solubility assessment 40 vol.) of the same compound?
A: < 25 mg/mL

Q: And the solubility (toluene, organic solvent or mixture, Toluene, sample ID A15, read-out: Solubility assessment 60 vol.)?
A: < 16.7 mg/mL

Q: What about the Solubility in water (water) of the same compound?
A: highly soluble; also recorded: high solubility

Q: And the solubility (water, 50 °C, water, Water, sample ID A12, read-out: Solubility assessment 10 vol.)?
A: 50 to 100 mg/mL

Q: What about the solubility (water, 50 °C, water, Water, sample ID A12, read-out: Solubility assessment 20 vol.) of the same compound?
A: 50 to 100 mg/mL
